Source: article PMC6273209, “Evaluation of the Enantiomer Specific Biokinetics and Radiation Doses of [^18F]Fluspidine—A New Tracer in Clinical Translation for Imaging of σ1 Receptors” (Molecules, 2016)

Experiment: Human dosimetry estimation from ex vivo biodistribution (organ harvesting method)
Type: in vivo, CD-1 mice
Conditions: for OD Adrenals / OD Brain / OD Breasts / OD Gallbladder Wall / OD Heart Wall / OD Kidneys / OD LLI Wall / OD Liver / OD Lungs / OD Muscle / OD Osteogenic Cells / OD Ovaries / OD Pancreas / OD Red Marrow / OD Skin / OD Small Intestine / OD Spleen / OD Stomach Wall / OD Testes / OD Thymus / OD Thyroid / OD Total Body / OD ULI Wall / OD Urinary Bladder Wall / OD Uterus / ED Contr. Adrenals / ED Contr. Brain / ED Contr. Breasts / ED Contr. Gallbladder Wall / ED Contr. Heart Wall / ED Contr. Kidneys / ED Contr. LLI Wall / ED Contr. Liver / ED Contr. Lungs / ED Contr. Muscle / ED Contr. Osteogenic Cells / ED Contr. Ovaries / ED Contr. Pancreas / ED Contr. Red Marrow / ED Contr. Skin / ED Contr. Small Intestine / ED Contr. Spleen / ED Contr. Stomach Wall / ED Contr. Thymus / ED Contr. Thyroid / ED Contr. ULI Wall / ED Contr. Urinary Bladder Wall / ED Contr. Uterus: mouse organ harvesting; for OD Adrenals / OD Brain / OD Breasts / OD Gallbladder Wall / OD Heart Wall / OD Kidneys / OD LLI Wall / OD Liver / OD Lungs / OD Muscle / OD Osteogenic Cells / OD Ovaries / OD Pancreas / OD Red Marrow / OD Skin / OD Small Intestine / OD Spleen / OD Stomach Wall / OD Testes / OD Thymus / OD Thyroid / OD Total Body / OD ULI Wall / OD Urinary Bladder Wall / OD Uterus: scaled to human adult male model; for ED Contr. Adrenals / ED Contr. Brain / ED Contr. Breasts / ED Contr. Gallbladder Wall / ED Contr. Heart Wall / ED Contr. Kidneys / ED Contr. LLI Wall / ED Contr. Liver / ED Contr. Lungs / ED Contr. Muscle / ED Contr. Osteogenic Cells / ED Contr. Ovaries / ED Contr. Pancreas / ED Contr. Red Marrow / ED Contr. Skin / ED Contr. Small Intestine / ED Contr. Spleen / ED Contr. Stomach Wall / ED Contr. Thymus / ED Contr. Thyroid / ED Contr. ULI Wall / ED Contr. Urinary Bladder Wall / ED Contr. Uterus / ED ICRP 60 / ED: scaled to human; for ED Contr. Adrenals / ED Contr. Brain / ED Contr. Breasts / ED Contr. Gallbladder Wall / ED Contr. Heart Wall / ED Contr. Kidneys / ED Contr. LLI Wall / ED Contr. Liver / ED Contr. Lungs / ED Contr. Muscle / ED Contr. Osteogenic Cells / ED Contr. Ovaries / ED Contr. Pancreas / ED Contr. Red Marrow / ED Contr. Skin / ED Contr. Small Intestine / ED Contr. Spleen / ED Contr. Stomach Wall / ED Contr. Thymus / ED Contr. Thyroid / ED Contr. ULI Wall / ED Contr. Urinary Bladder Wall / ED Contr. Uterus / ED: ICRP 103 weighting; for ED ICRP 60 / ED: mouse, harvesting; for ED ICRP 60: ICRP 60 weighting
Method: Female CD-1 mice (age: 12 weeks) received an intravenous injection of (R)-(+)-[^18F]fluspidine (0.35 ± 0.08 MBq; weight: 29.8 ± 2.2 g; n = 28) or (S)-(−)-[^18F]fluspidine (0.39 ± 0.05 MBq; weight: 29.3 ± 1.9 g; n = 22). Two to three animals per time point were sacrificed by cervical dislocation at 5, 15, 30, 45, 60, 90, 120, 180, and 240 min. p.i. The brain, heart, lung, stomach, small intestine (SI), large intestine (LI), liver, kidneys, urinary bladder (UB), spleen, thymus, pancreas, adrenals, and ovaries were dissected, weighed, and the accumulated activity quantified in a gamma-counter (WIZARD Automatic Gamma Counter, PerkinElmer, Waltham, MA, USA) to determine the percentage injected activity (dose) per gram of tissue (%ID/g).
In addition, the sampling time p.i. and %ID/g values were scaled proportionately to human magnitude (please see Equations (1) and (2) in Section 4.4) prior to dose estimation with OLINDA/EXM (Vanderbilt University, Nashville, TN, USA, version 1.0).
For human dosimetry estimation from animal biodistribution and PET/MR imaging, animal organ masses and time scale was extrapolated to human magnitudes. At first, the organ-specific animal %ID data were extrapolated to the human scale with the equation (1) %ID/organhuman=%ID/gmouse · morganhuman · mmouse/mhuman with the fraction of the injected activity in the corresponding human organ = %ID/organhuman , the fraction of injected activity per gram animal organ tissue = %ID/gmouse and morganhuman the mass of the corresponding human organ. At second, a time scale extrapolation is needed due to differences in the metabolic rate using the equation (2) thuman=tmouse{mhuman/mmouse}^0.25 including the human time scale = thuman , the animal time scale = tmouse and the ratio of animal and human body weights = mmouse/mhuman .
The human dosimetry estimation was performed with the data extrapolated as well as the genuine human data using OLINDA/EXM software. The time-activity curves were estimated by exponential fitting and calculating the time integral, which equals the number of disintegrations (NODs) per organ during the observation period normalized to 1 Becquerel administered activity dose. […] Therefore, activity data of the urinary bladder was derived from the image for each time point. In contrast, for humans the activity concentration data of the urinary bladder was obtained in a more direct approach. At first, the activity and volume of urine was determined in the last frame of the PET scan before each micturition. Afterwards, the voided urine was collected, weighed, and the activity of three aliquots (assuming 1 mL = 1 g) determined with a gamma counter, and the activity of the whole sample estimated. The difference between imaged and sampled urine activity is equal to the residue of radioactive urine in the urinary bladder. To calculate the NOD in the human urinary bladder, the time-activity curve is integrated using a trapezoidal equation (3) %ID˜UB=1/2∑i=1n−1(%IDi+%IDi+1)(ti+1−ti) with the fraction of injected activity %IDi at the time ti and the cumulated activity of the urinary bladder i.e., the NOD %ID˜UB .
Furthermore, the NODs of the gastric system were calculated following the ICRP GI model (ICRP 30) as implemented in OLINDA 1.0. The NODs obtained either from the EXM module or the trapezoidal equation were transferred to OLINDA. The OD for the chosen hermaphroditic adult male phantom is estimated following the MIRD scheme. The S values are pre-calculated and implemented for the respective phantom in OLINDA. Subsequently, the ED contribution from each organ is calculated by multiplying the ODs with the respective tissue weighting factors as published by the International Commission on Radiological Protection (ICRP 103 [27]) for each organ. […]

[18F]CC[C@H]1OC2(CCN(Cc3ccccc3)CC2)c2ccccc21 [(R)-(+)-[^18F]fluspidine]
OD Adrenals: 18.6 μSv/MBq
OD Brain: 12.6 μSv/MBq
OD Breasts: 11.3 μSv/MBq
OD Gallbladder Wall: 14.0 μSv/MBq
OD Heart Wall: 22.3 μSv/MBq
OD Kidneys: 27.6 μSv/MBq
OD LLI Wall: 16.4 μSv/MBq
OD Liver: 10.3 μSv/MBq
OD Lungs: 45.5 μSv/MBq
OD Muscle: 7.1 μSv/MBq
OD Osteogenic Cells: 19.1 μSv/MBq
OD Ovaries: 24.9 μSv/MBq
OD Pancreas: 21.7 μSv/MBq
OD Red Marrow: 13.5 μSv/MBq
OD Skin: 8.7 μSv/MBq
OD Small Intestine: 25.1 μSv/MBq
OD Spleen: 17.2 μSv/MBq
OD Stomach Wall: 14.3 μSv/MBq
OD Testes: 10.8 μSv/MBq
OD Thymus: 19.3 μSv/MBq
OD Thyroid: 11.5 μSv/MBq
OD Total Body: 12.2 μSv/MBq
OD ULI Wall: 25.6 μSv/MBq
OD Urinary Bladder Wall: 20.2 μSv/MBq
OD Uterus: 14.9 μSv/MBq
ED Contr. Adrenals: 0.2 μSv/MBq
ED Contr. Brain: 0.1 μSv/MBq
ED Contr. Breasts: 1.4 μSv/MBq
ED Contr. Gallbladder Wall: 0.1 μSv/MBq
ED Contr. Heart Wall: 0.2 μSv/MBq
ED Contr. Kidneys: 0.2 μSv/MBq
ED Contr. LLI Wall: 1.0 μSv/MBq
ED Contr. Liver: 0.4 μSv/MBq
ED Contr. Lungs: 5.5 μSv/MBq
ED Contr. Muscle: 0.1 μSv/MBq
ED Contr. Osteogenic Cells: 0.2 μSv/MBq
ED Contr. Ovaries: 2.0 μSv/MBq
ED Contr. Pancreas: 0.2 μSv/MBq
ED Contr. Red Marrow: 1.6 μSv/MBq
ED Contr. Skin: 0.1 μSv/MBq
ED Contr. Small Intestine: 0.2 μSv/MBq
ED Contr. Spleen: 0.1 μSv/MBq
ED Contr. Stomach Wall: 1.7 μSv/MBq
ED Contr. Thymus: 0.2 μSv/MBq
ED Contr. Thyroid: 0.5 μSv/MBq
ED Contr. ULI Wall: 1.5 μSv/MBq
ED Contr. Urinary Bladder Wall: 0.8 μSv/MBq
ED Contr. Uterus: 0.1 μSv/MBq
ED ICRP 60: 20.1 μSv/MBq
ED: 18.4 μSv/MBq

FCC[C@@H]1OC2(CCN(Cc3ccccc3)CC2)c2ccccc21 [(S)-(−)-[^18F]fluspidine]
OD Adrenals: 36.0 μSv/MBq
OD Brain: 12.4 μSv/MBq
OD Breasts: 11.2 μSv/MBq
OD Gallbladder Wall: 15.5 μSv/MBq
OD Heart Wall: 17.9 μSv/MBq
OD Kidneys: 35.6 μSv/MBq
OD LLI Wall: 19.0 μSv/MBq
OD Liver: 12.5 μSv/MBq
OD Lungs: 30.5 μSv/MBq
OD Muscle: 7.2 μSv/MBq
OD Osteogenic Cells: 19.6 μSv/MBq
OD Ovaries: 17.0 μSv/MBq
OD Pancreas: 26.2 μSv/MBq
OD Red Marrow: 13.6 μSv/MBq
OD Skin: 9.1 μSv/MBq
OD Small Intestine: 31.9 μSv/MBq
OD Spleen: 17.6 μSv/MBq
OD Stomach Wall: 14.8 μSv/MBq
OD Testes: 11.2 μSv/MBq
OD Thymus: 12.0 μSv/MBq
OD Thyroid: 11.7 μSv/MBq
OD Total Body: 12.5 μSv/MBq
OD ULI Wall: 33.3 μSv/MBq
OD Urinary Bladder Wall: 13.9 μSv/MBq
OD Uterus: 15.9 μSv/MBq
ED Contr. Adrenals: 0.3 μSv/MBq
ED Contr. Brain: 0.1 μSv/MBq
ED Contr. Breasts: 1.3 μSv/MBq
ED Contr. Gallbladder Wall: 0.1 μSv/MBq
ED Contr. Heart Wall: 0.2 μSv/MBq
ED Contr. Kidneys: 0.3 μSv/MBq
ED Contr. LLI Wall: 1.1 μSv/MBq
ED Contr. Liver: 0.5 μSv/MBq
ED Contr. Lungs: 3.7 μSv/MBq
ED Contr. Muscle: 0.1 μSv/MBq
ED Contr. Osteogenic Cells: 0.2 μSv/MBq
ED Contr. Ovaries: 1.4 μSv/MBq
ED Contr. Pancreas: 0.2 μSv/MBq
ED Contr. Red Marrow: 1.6 μSv/MBq
ED Contr. Skin: 0.1 μSv/MBq
ED Contr. Small Intestine: 0.3 μSv/MBq
ED Contr. Spleen: 0.2 μSv/MBq
ED Contr. Stomach Wall: 1.8 μSv/MBq
ED Contr. Thymus: 0.1 μSv/MBq
ED Contr. Thyroid: 0.5 μSv/MBq
ED Contr. ULI Wall: 2.0 μSv/MBq
ED Contr. Urinary Bladder Wall: 0.6 μSv/MBq
ED Contr. Uterus: 0.1 μSv/MBq
ED ICRP 60: 17.3 μSv/MBq
ED: 16.7 μSv/MBq
ED (listed as (S)-(−)-[^18F]Fluspidine): 16.7 μSv/MBq
